In US20260308173A1, “OXAZOLOPYRIDIN-7(4H)-ONE WRN INHIBITORS” (NIMBUS WADJET, INC., priority 2023, published 2026):

Assays:
human Werner helicase = target: T1, human Werner helicase (Homo sapiens, UniProt Q14191, L1074F); assay: WRN (BV08) ADP-Glo Assay; format: biochemical; conditions: WRN-BV08 (517-1235 L1074F) 0.15 nM, 0.1 nM DNA duplex, ATP, 15 min preincubation, 60 min at 25° C, pH 7.5; read-out: ADP-Glo_hWRN_IC50
T1 construct: Uniprot Q14191, amino acids 517-1235 with L1074F point mutation; TEV-cleavable 8xHis tag (C, cleaved yes); made in house; host or cells: Sf9 insect cells (baculovirus)
Excerpt: Example 2: WRN (BV08) ADP-Glo Assay Protocol
Bovine skin gelatin (BSG), dimethyl sulfoxide (DMSO), Pluronic F-127 and tris(2-carboxyethyl)phosphine hydrochloride solution (TCEP) were purchased from Sigma-Aldrich (St. Louis, MO) at the highest level of purity possible. Bicine buffer solution was purchased from Alfa Aesar (Tewksbury, MA) and compound NSC-617145 was purchased from Tocris (Minneapolis, MN). DNA duplex was synthesized at BGI (Shenzhen, China) and was composed of strand 1 with the sequence 5′-[…]-3′ (SEQ ID NO.: 1) and strand 2 with the sequence 5′-[…]-3′ (SEQ ID NO.: 2). DNA strands were annealed by heating to 95° C. for 5 minutes followed by slow cooling to room temperature. Compounds in 100% DMSO (0.1 μl) were spotted into a 384-well white polystyrene Optiplate-384 (Perkin Elmer; Waltham, MA) assay plate using a LabCyte Echo 550 (Agilent; Santa Clara, CA). DMSO (0.1 μl) was added to columns 12, rows A-H and column 24, rows I-P for the maximum signal control. Compound NSC-617145 (0.1 μl) was added to columns 12, rows I-P and 24, rows A-H for the minimum signal control (100% inhibition). Compounds/DMSO were preincubated for 15 minutes at 25° C. with 5 μl 2×WRN (BV08), prepared as described below, in assay buffer containing 20 mM Bicine (pH=7.5), 1 mM MgCl2, 10 mM KCl, 0.1% Pluronic F-127, 0.005% BSG, 1 mM TCEP. The reaction was initiated by the addition of 5 μl 2× substrate mixture in assay buffer and incubated for 60 minutes at 25° C. The final concentrations of the assay components were 0.15 nM WRN, 5 µM ATP, and 0.1 nM DNA duplex. The final DMSO concentration was 1% and the reference compound concentration (NSC-617145) used for the minimal signal control was 20 μM. The reaction was stopped by the addition of the ADP-Glo Kit components (Promega; Madison, WI) as directed and the relative luminescence units (RLU) were read on an Envision 2104 (Perkin Elmer; Waltham, MA).
Where RLU=relative luminescence units, sample=signal in sample well, and MIN and MAX are the respective minimum and maximum signal controls.
Y=Bottom+(Top−Bottom)/(1+(IC50/X)^Hill Slope)
Where top and bottom are normally allowed to float but may be fixed at 100 or 0 respectively in a 3-parameter fit. Y is the % inhibition and X is the compound concentration.
Molecular Biology and virus production. The DNA encoding human Werner helicase (Uniprot Q14191, amino acids 517-1235 with L1074F point mutation) was generated with codon-optimization for E. coli expression and subcloned into the pFastBac vector with a TEV cleavable 8×His tag (WRN—BV08). The baculovirus from the expression plasmid WRN—BV08 was generated from transfection and amplification following the manufacturer's instructions.
Sf9 cells grown in SF900II media were infected with 1:200 WRN—BV08 P2 virus and incubated for protein expression for 72 h at 27° C. The WRN protein was purified using the following protocol. The cell pellets were thawed and resuspended in buffer A (50 mM Tris, pH 7.5, 500 mM NaCl, 1 mM TCEP, 10% Glycerol) supplemented with 0.5% CHAPS, 1 mM [COMPOUND LEFT OUT], 1 μg/ml Leupeptin, 1 μg/ml Pepstatin, and the Pierce Universal Nuclease and cocktail tablet. Cleared lysates were loaded onto a Ni Sepharose™ excel column and washed with buffer A and bound protein was eluted with buffer A supplemented with 300 mM imidazole. The eluted protein was dialyzed against buffer A and digested by His-tagged TEV (1:5 ratio) overnight at 4° C. […]

p21 (Homo sapiens) = target: T2, p21 (Homo sapiens); assay: Effect on p21 induction in HCT116 cells; format: cell-based; conditions: HCT116 colon carcinoma cells, 24 h, p21/GAPDH ratio, percent activation vs internal reference WRN inhibitor; read-out: P21_EC50
T2 construct: p21 in-cell western after 24 h, GAPDH normalised
Procedure: Example 3: Method for Determining Effect on p21 Induction in Cells
The colon carcinoma cell line HCT116 was obtained from ATCC and cultured in growth medium consisting of Mccoy's 5A Medium (Gibco 16600108) supplemented with 10% FBS (Transgene FS201-02) and 100 units/mL penicillin-streptomycin (Gibco 15140122) and maintained at 37° C. under 5% CO2. On the day of seeding, 2,000 cells in 30 μL of culture media were plated per well to Poly-D-Lysine 384 Well Black Clear Plates (Biocoat 356663) and incubated overnight at 37° C. under 5% CO2. The following day, compounds were serially diluted in DMSO for a total of 11 test concentrations. The typical starting concentration of cpds was 10 μM with 2-fold dilutions. Next, 150 nL of diluted compound was added in duplicate to the assay plate, using an Echo 655 (Labcyte). The plate was centrifuged at 500 RPM for 1 min and then incubated at 37° C. under 5% CO2 for 24 h. After 24 h, medium was removed, and cells were fixed by adding 40 μL of 4% paraformaldehyde solution to each well and incubated for 20 min at room temperature. The plate was then washed 4 times with 100 μL per well of wash buffer (PBS with 0.1% Tween-20) using a microplate washer. Next, 30 μL of ice-cold methanol was added to each well and the plate was incubated at −20° C. for 10 min. The plate was washed 4 times with 100 μL per well of wash buffer by a microplate washer, then 30 μL per well of blocking buffer ((Intercept PBS blocking buffer (LI-COR 927-70001) with 0.05% Tween-20)) was added and the plate was incubated at room temperature with shaking for 2h. Next, to each test well, 20 μL of primary antibody solution ((p21 Waf1/CIP (12D1) Rabbit mAb (Cell Signaling Technologies 2947) diluted 1:1000 and GAPDH (D4C6R) Mouse mAb (Cell Signaling Technologies 97166) diluted 1:2000 in blocking buffer)) was added and the plate was placed at 4° C., overnight. The following day, the plate was washed 5 times with 100 μL per well of wash buffer using a microplate washer for 5 min. 20 μL per well of secondary antibody ((IRDye 680CW Goat anti-Mouse IgG (H+L) (LI-COR 926-68070) diluted 1:2000 in Blocking Buffer and IRDye 800CW Goat anti-Rabbit IgG (H+L) (LI-COR 926-32211) diluted 1:2000 in Blocking Buffer)) was then added and the plate was stored for 2 h in the dark at room temperature with shaking. The plate was then washed 4 times with 100 μL per well of wash buffer again using a microplate washer. Finally, the p21 signal and the GAPDH signal were quantified using a LI-COR Odyssey CLx Imager machine reading at 800 nm and 700 nm, respectively. Each plate contained DMSO control (low control) and an internal reference WRN inhibitor (high control) respectively. For quantitation, the 800 nm/700 nm ratio was calculated for each well to give fold p21 induction and then percent activation for each compound well was calculated as follows ((100×(ratio cpd well−ratio low control)/(ratio high control−ratio low control)). EC50 values for each compound was generated after non-linear regression curve fitting using commercially available software.

T2 sequence (Q14191 whole entry): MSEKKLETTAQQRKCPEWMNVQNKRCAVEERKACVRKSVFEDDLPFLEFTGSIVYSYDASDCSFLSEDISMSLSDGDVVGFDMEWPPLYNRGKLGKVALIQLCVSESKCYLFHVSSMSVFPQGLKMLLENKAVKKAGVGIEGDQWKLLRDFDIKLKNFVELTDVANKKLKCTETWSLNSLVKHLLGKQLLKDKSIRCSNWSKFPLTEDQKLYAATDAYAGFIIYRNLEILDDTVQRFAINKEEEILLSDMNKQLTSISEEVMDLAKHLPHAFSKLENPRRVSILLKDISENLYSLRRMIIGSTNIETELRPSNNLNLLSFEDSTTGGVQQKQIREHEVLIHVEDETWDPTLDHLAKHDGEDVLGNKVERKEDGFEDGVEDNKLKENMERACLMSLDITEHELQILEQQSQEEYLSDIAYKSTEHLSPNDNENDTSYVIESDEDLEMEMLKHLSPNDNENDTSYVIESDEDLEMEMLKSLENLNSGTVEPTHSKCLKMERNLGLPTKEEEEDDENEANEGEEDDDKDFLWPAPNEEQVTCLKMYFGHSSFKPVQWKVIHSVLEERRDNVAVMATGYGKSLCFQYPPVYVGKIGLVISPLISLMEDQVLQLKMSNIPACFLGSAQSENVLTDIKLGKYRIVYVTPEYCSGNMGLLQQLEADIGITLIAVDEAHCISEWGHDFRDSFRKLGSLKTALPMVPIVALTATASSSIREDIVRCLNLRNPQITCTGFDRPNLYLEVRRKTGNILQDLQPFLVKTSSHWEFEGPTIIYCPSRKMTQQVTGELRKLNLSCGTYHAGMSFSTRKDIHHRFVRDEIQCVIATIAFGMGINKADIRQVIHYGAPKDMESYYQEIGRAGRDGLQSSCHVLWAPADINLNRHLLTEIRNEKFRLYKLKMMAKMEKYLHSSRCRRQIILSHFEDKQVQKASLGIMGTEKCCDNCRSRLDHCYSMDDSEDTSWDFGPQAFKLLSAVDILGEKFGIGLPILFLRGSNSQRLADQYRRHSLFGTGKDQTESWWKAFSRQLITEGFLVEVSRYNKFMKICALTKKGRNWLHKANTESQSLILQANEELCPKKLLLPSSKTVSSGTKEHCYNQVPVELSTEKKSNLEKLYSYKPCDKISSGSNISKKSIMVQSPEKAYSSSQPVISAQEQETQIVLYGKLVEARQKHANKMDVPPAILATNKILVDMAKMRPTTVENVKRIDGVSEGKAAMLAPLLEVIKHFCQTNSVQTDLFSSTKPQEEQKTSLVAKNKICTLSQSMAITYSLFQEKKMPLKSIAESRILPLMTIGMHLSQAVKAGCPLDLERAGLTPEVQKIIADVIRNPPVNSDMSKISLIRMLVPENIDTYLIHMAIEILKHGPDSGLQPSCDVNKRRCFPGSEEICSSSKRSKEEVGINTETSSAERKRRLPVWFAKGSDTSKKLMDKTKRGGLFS
T1 sequence (Q14191 with tags, fused parts or gaps L1074F): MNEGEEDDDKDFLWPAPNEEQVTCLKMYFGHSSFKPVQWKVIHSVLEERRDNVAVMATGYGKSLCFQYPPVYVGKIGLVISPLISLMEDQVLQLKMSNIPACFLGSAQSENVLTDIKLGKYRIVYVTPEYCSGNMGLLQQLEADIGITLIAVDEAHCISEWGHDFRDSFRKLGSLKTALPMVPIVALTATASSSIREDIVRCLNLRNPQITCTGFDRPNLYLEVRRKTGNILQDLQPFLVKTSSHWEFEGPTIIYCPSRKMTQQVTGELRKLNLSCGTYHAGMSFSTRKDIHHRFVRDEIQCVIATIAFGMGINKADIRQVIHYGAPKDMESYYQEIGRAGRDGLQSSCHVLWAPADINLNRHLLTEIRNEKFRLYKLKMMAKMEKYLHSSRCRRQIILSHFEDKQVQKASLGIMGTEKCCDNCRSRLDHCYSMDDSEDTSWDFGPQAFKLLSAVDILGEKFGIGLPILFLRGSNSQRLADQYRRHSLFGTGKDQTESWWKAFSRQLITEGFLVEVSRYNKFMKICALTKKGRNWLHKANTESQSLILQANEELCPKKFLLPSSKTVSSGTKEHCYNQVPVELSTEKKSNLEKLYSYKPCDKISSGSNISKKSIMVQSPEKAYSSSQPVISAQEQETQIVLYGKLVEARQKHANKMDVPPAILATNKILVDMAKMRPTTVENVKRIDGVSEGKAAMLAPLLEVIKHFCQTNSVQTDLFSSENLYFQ

IC50 (human Werner helicase) [nM] | EC50 (p21 (Homo sapiens)) [nM] | SMILES
5 to 50 | – | CCc1c(N2CCN(C(=O)c3ncnc(C)c3O)CC2)c(=O)c2oc(-c3ccnc(OC)c3)nc2n1CC(=O)NC12CC(C(F)(F)F)(C1)C2 [1-3]
≤ 5 | ≤ 500 | CCc1c(N2CCN(C(=O)c3c(O)ccc4ncoc34)CC2)c(=O)c2oc(-c3ccnc(OC)c3)nc2n1CC(=O)Nc1ccc(C(F)(F)F)cc1Cl [I-5, N-(2-chloro-4-(trifluoromethyl)phenyl)-2-(5-ethyl-6-(4-(6-hydroxybenzo[d]oxazole-7-carbonyl)piperazin-1-y1)-2-(2-methoxypyridin-4-yl)-7-oxooxazolo[4,5-b]pyridin-4(7H)-y1)acetamide]
≤ 5 | – | CCc1c(N2CCN(C(=O)c3ncnc(C)c3O)CC2)c(=O)c2nc(-c3ccnc(OC)c3)oc2n1CC(=O)Nc1ccc(C(F)(F)F)cc1Cl [1-2]
5 to 50 | > 5000 | CCc1c(N2CCN(C(=O)c3ncnc(C)c3O)CC2)c(=O)c2nc(-c3ccnc(OC)c3)oc2n1CC(=O)NC12CC(C(F)(F)F)(C1)C2 [I-4, 2-(5-ethyl-6-(4-(5-hydroxy-6-methylpyrimidine-4-carbonyl)piperazin-1-yl)-2-(2-methoxypyridin-4-yl)-7-oxooxazolo[5,4-b]pyridin-4(7H)-y1)-N-(3-(trifluoromethyl)bicyclo[1.1.1]pentan-1-yl)acetamide]
– | 2000 to 5000 | CCc1c(N2CCN(C(=O)c3ncnc(C)c3O)CC2)c(=O)c2oc(-c3ccnc(OC)c3)nc2n1CC(=O)NC12CC(C(F)(F)F)(C1)C2 [I-3, 2-(5-ethyl-6-(4-(5-hydroxy-6-methylpyrimidine-4-carbonyl)piperazin-1-yl)-2-(2-methoxypyridin-4-yl)-7-oxooxazolo[4,5-b]pyridin-4(7H)-yl)-N-(3-(trifluoromethyl)bicyclo[1.1.1]pentan-1-yl)acetamide]
≤ 5 | ≤ 500 | CCc1c(N2CCN(C(=O)c3ncnc(C)c3O)CC2)c(=O)c2oc(-c3ccnc(OC)c3)nc2n1CC(=O)Nc1ccc(C(F)(F)F)cc1Cl [I-1, N-(2-chloro-4-(trifluoromethyl)phenyl)-2-(5-ethyl-6-(4-(5-hydroxy-6-methylpyrimidine-4-carbonyl)piperazin-1-y1)-2-(2-methoxypyridin-4-yl)-7-oxooxazolo[4,5-b]pyridin-4(7H)-yl)acetamide]
– | ≤ 500 | CCc1c(N2CCN(C(=O)c3ncnc(C)c3O)CC2)c(=O)c2nc(-c3ccnc(OC)c3)oc2n1CC(=O)Nc1ccc(C(F)(F)F)cc1Cl [I-2, N-(2-chloro-4-(trifluoromethyl)phenyl)-2-(5-ethyl-6-(4-(5-hydroxy-6-methylpyrimidine-4-carbonyl)piperazin-1-yl)-2-(2-methoxypyridin-4-yl)-7-oxooxazolo[5,4-b]pyridin-4(7H)-yl)acetamide]
